Test results taken from US12484583B2 (priority 2019, dated 2025).

Assays:
[1] = tested on: Fusarium culmorum; settings: in vivo
[2] = tested on: Rhizoctonia; settings: in vivo

Row | Compound | fungicidal activity of the insecticide by itself [1] | stimulation of the fungicidal action of natamycin [1] | fungicidal activity of the insecticide by itself [2] | stimulation of the fungicidal action of natamycin [2]
1 | O=[N+]([O-])NC1=NCCN1Cc1ccc(Cl)nc1 [Imidacloprid, N-[1-[(6-chloropyridin-3-yl)methyl]-4,5-dihydroimidazol-2-yl]nitramide] | does not have fungicidal activity by itself | stimulates the fungicidal action of natamycin on seeds of different plants |  | 
2 | abamectin |  |  | does not have fungicidal by itself | stimulates the fungicidal action of natamycin against different fungal pathogens on seeds
